Measured values as given in patent publication US8889878B2, “Haloalky-substituted amides as insecticides and acaricides” (Bayer CropScience AG, priority 2009, dated 2014).

Legend:
[1] = system: mustard beetle (Phaedon cochleariae); experiment: Phaedon test (PHAECO spray treatment), Example 7; type: in vivo; conditions: application rate 20 g/ha, china cabbage leaf discs sprayed, after 7 days
Method: Phaedon Test (PHAECO Spray Treatment)
(§1) • Solvent: 78.0 parts by weight of acetone • 1.5 parts by weight of dimethylformamide • Emulsifier: 0.5 part by weight of alkylaryl polyglycol ether
To prepare an active ingredient formulation, 1 part by weight of active ingredient is mixed with the stated amounts of solvent and emulsifier, and the concentrate is diluted with emulsifier-containing water to the desired concentration. Leaf discs from china cabbage (Brassica pekinensis) are sprayed with an active ingredient formulation of the desired concentration and, after drying, populated with larvae of the mustard beetle (Phaedon cochleariae).
After 7 days, the efficacy in % is determined. 100% means that all beetle larvae were killed; 0% means that no beetle larvae were killed.

[2] = system: red spider mite (Tetranychus urticae); experiment: Tetranychus test, OP-resistant (TETRUR spray treatment), Example 8; type: in vivo; conditions: application rate 20 g/ha, common bean leaf discs sprayed, after 6 days
Method: Tetranychus Test, OP-resistant (TETRUR Spray Treatment)
as §1
To prepare an active ingredient formulation, 1 part by weight of active ingredient is mixed with the stated amounts of solvent and emulsifier, and the concentrate is diluted with emulsifier-containing water to the desired concentration.
Leaf discs from the common bean (Phaseolus vulgaris) infested by all stages of the red spider mite (Tetranychus urticae) are sprayed with an active ingredient formulation of the desired concentration.
After 6 days, the efficacy in % is determined. 100% means that all spider mites were killed; 0% means that no spider mites were killed.

[3] = logP by HPLC on reverse-phase column (EEC Directive 79/831 Annex V.A8); type: physicochemical; conditions: HPLC-MS
Method: The logP values reported in the above Tables and Preparation Examples were determined according to EEC Directive 79/831 Annex V.A8 by HPLC (High Performance Liquid Chromatography) on a reverse-phase column (C18). Temperature 43° C.

Boophilus microplus = Boophilus microplus test (BOOPMI injection), Example 11; type: in vivo; conditions: application rate 20 μg/animal, injected into abdomen, after 7 days
Method: Boophilus microplus Test (BOOPMI Injection) • Solvent: dimethyl sulphoxide To prepare an appropriate active ingredient formulation, 10 mg of active ingredient are mixed with 0.5 ml of solvent and the concentrate is diluted with solvent to the desired concentration. The active ingredient solution is injected into the abdomen (Boophilus microplus), and the animals are transferred to dishes and stored in a climate-controlled room. The efficacy was assessed by the number of fertile eggs laid. After 7 days, the efficacy in % is determined. 100% means that none of the ticks has laid any fertile eggs.

[4] = system: green peach aphid (Myzus persicae); experiment: Myzus test (MYZUPE spray treatment), Example 17; type: in vivo; conditions: china cabbage leaf discs sprayed, after 6 days
Method: Myzus Test (MYZUPE Spray Treatment)
• Solvent: 78 parts by weight of acetone • 1.5 parts by weight of dimethylformamide • Emulsifier: 0.5 part by weight of alkylaryl polyglycol ether
To prepare an appropriate active ingredient formulation, 1 part by weight of active ingredient is mixed with the stated amounts of solvent and emulsifier, and the concentrate is diluted with emulsifier-containing water to the desired concentration. Leaf discs from china cabbage (Brassica pekinensis) infested by all stages of the green peach aphid (Myzus persicae) are sprayed with an active ingredient formulation of the desired concentration.
After 6 days, the efficacy in % is determined. 100% means that all aphids were killed; 0% means that no aphids were killed.

[5] = system: armyworm (Spodoptera frugiperda); experiment: Spodoptera frugiperda test (SPODFR spray treatment), Example 15; type: in vivo; conditions: application rate 100 g/ha, maize leaf discs sprayed, after 7 days
In short: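 Caterpillars placed on dried, sprayed Zea mays leaf discs; formulation of acetone, dimethylformamide and emulsifier diluted with emulsifier-containing water to test concentration. Percent kill scored on day 7.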

Row | SMILES | efficacy in % [1] [%] | efficacy in % [2] [%] | logP [3] | efficacy in % (fertile eggs laid) (Boophilus microplus) [%] | efficacy in % ([4]; application rate 100 g/ha) [%] | efficacy in % [5] [%] | efficacy in % ([4]; application rate 500 g/ha) [%] | logP ([3]; HPLC on reverse-phase column)
1 | Cc1cc(/C=C/C(=O)NC(c2cccc(C(F)(F)F)c2)C(F)(F)F)ccc1C(=O)Nc1ccc(F)cc1 (stereo not shown) [Ia-99] | 100 | 80 | HPLC-MS: logP = 3.78 mass | – | – | – | – | –
2 | CCOC1(NC(=O)c2ccc(/C=C/C(=O)NC(c3cccc(C(F)(F)F)c3)C(F)(F)F)cc2Cl)CC1 (stereo not shown) [Ia-96] | 100 | 80 | HPLC-MS: logP = 3.47 mass | – | – | – | – | –
3 | O=C(/C=C/c1ccc(C(=O)Nc2ccncc2)c(Cl)c1)NC(c1cccc(C(F)(F)F)c1)C(F)(F)F (stereo not shown) [Ia-113] | 100 | 100 | HPLC-MS: logP = 1.92 mass | – | – | – | – | –
4 | O=C(/C=C/c1ccc(C(=O)Nc2ccccn2)c(Br)c1)NC(c1cccc(C(F)(F)F)c1)C(F)(F)F (stereo not shown) [Ia-92] | 100 | 80 | HPLC-MS: logP = 3.47 mass | – | – | – | – | –
5 | O=C(/C=C/c1ccc(C(=O)NC(CF)CF)c(C(F)(F)F)c1)NC(c1cccc(C(F)(F)F)c1)C(F)(F)F (stereo not shown) [Ia-143] | – | – | HPLC-MS: logP = 3.48; mass | 100 | 100 | 100 | – | –
6 | O=C(/C=C/c1ccc(C(=O)NCc2ccnc(Cl)c2)c(C(F)(F)F)c1)NC(c1cccc(C(F)(F)F)c1)C(F)(F)F (stereo not shown) [Ia-66] | 100 | 90 | HPLC-MS: logP = 3.41; mass | – | – | – | – | –
7 | O=C(/C=C/c1ccc(C(=O)NC2CC2F)c(C(F)(F)F)c1)NC(c1cccc(C(F)(F)F)c1)C(F)(F)F (stereo not shown) [Ia-65] | 100 | 90 | HPLC-MS: logP = 3.33; mass | – | – | – | – | –
8 | CCOC1(NC(=O)c2ccc(/C=C/C(=O)NC(c3cccc(C(F)(F)F)c3)C(F)(F)F)cc2C(F)(F)F)CC1 (stereo not shown) [Ia-68] | 100 | 100 | HPLC-MS: logP = 3.52; mass | – | – | – | – | –
9 | O=C(/C=C/c1ccc(C(=O)NCc2ccc(F)cn2)c(Br)c1)NC(c1cccc(C(F)(F)F)c1)C(F)(F)F (stereo not shown) [Ia-90] | 100 | 80 | HPLC-MS: logP = 3.23 mass | – | – | – | – | –
10 | COCC(C)NC(=O)c1ccc(/C=C/C(=O)NC(c2cccc(C(F)(F)F)c2)C(F)(F)F)cc1Cl (stereo not shown) [Ia-164] | – | – | HPLC-MS: logP = 3.33; mass | 100 | 100 | – | – | –
11 | CN(C(=O)c1ccc(/C=C/C(=O)NC(c2cccc(C(F)(F)F)c2)C(F)(F)F)cc1Br)C1CC1 (stereo not shown) [Ia-95] | 100 | 80 | HPLC-MS: logP = 3.58 mass | – | – | – | – | –
12 | O=C(/C=C/c1ccc(C(=O)NCC2CCCO2)c(C(F)(F)F)c1)NC(c1cccc(C(F)(F)F)c1)C(F)(F)F (stereo not shown) [Ia-52] | – | 100 | HPLC-MS: logP = 3.27; mass | – | – | – | – | –
13 | O=C(/C=C/c1ccc(C(=O)NC(CF)CF)c(Br)c1)NC(c1cccc(C(F)(F)F)c1)C(F)(F)F (stereo not shown) [Ia-175] | – | – | HPLC-MS: logP = 3.35; mass | – | 100 | 83 | – | –
14 | O=C(/C=C/c1ccc(C(=O)NCc2ccccn2)c(Cl)c1)NC(c1cccc(C(F)(F)F)c1)C(F)(F)F (stereo not shown) [Ia-21] | 100 | – | HPLC-MS: logP = 2.75; mass | 100 | – | – | 100 | –
15 | CN(C(=O)c1ccc(/C=C/C(=O)NC(c2cccc(C(F)(F)F)c2)C(F)(F)F)cc1C(F)(F)F)c1ccccn1 (stereo not shown) [Ia-239] | – | – | HPLC-MS: logP = 2.07; mass | – | 90 | 100 | – | –
16 | O=C(/C=C/c1ccc(C(=O)Nc2ccc(F)cc2)c(C(F)(F)F)c1)NC(c1cccc(C(F)(F)F)c1)C(F)(F)F (stereo not shown) [Ia-48] | 100 | 90 | HPLC-MS: logP = 3.89; mass | – | – | – | – | –
17 | O=C(/C=C/c1ccc(C(=O)NCc2ccccc2F)c(C(F)(F)F)c1)NC(c1cccc(C(F)(F)F)c1)C(F)(F)F (stereo not shown) [Ia-74] | 100 | 90 | HPLC-MS: logP = 3.77; mass | – | – | – | – | –

Row | SMILES | efficacy in % [1] [%] | efficacy in % [2] [%] | logP [3] | efficacy in % (fertile eggs laid) (Boophilus microplus) [%] | efficacy in % ([4]; application rate 100 g/ha) [%] | efficacy in % [5] [%] | efficacy in % ([4]; application rate 500 g/ha) [%] | logP ([3]; HPLC on reverse-phase column)
18 | O=C(/C=C/c1ccc(C(=O)NCC(F)F)c(Cl)c1)NC(c1cccc(C(F)(F)F)c1)C(F)(F)F (stereo not shown) [Ia-156] | – | – | HPLC-MS: logP = 3.34; mass | 100 | 100 | 100 | – | –
19 | O=C(/C=C/c1ccc(C(=O)N(C2CCOCC2)C2CC2)c(C(F)(F)F)c1)NC(c1cccc(C(F)(F)F)c1)C(F)(F)F (stereo not shown) [Ia-67] | 100 | – | HPLC-MS: logP = 3.77; mass | – | – | – | 90 | –
20 | CCC(=O)NCc1ccc(/C=C/C(=O)NC(c2ccc(F)c(Cl)c2)C(F)(F)F)cc1C(F)(F)F (stereo not shown) [Ia-251] | – | – | HPLC-MS: logP = 3.47; mass | – | 80 | 100 | – | –
21 | O=C(/C=C/c1ccc(C(=O)NCc2ncccn2)c(Cl)c1)NC(c1cccc(C(F)(F)F)c1)C(F)(F)F (stereo not shown) [Ia-153] | – | – | HPLC-MS: logP = 2.94; mass | 100 | 100 | – | – | –
22 | CC(NC(=O)c1ccc(/C=C/C(=O)NC(c2cccc(C(F)(F)F)c2)C(F)(F)F)cc1Cl)c1ccccn1 (stereo not shown) [Ia-154] | – | – | HPLC-MS: logP = 3.45; mass | 100 | 90 | – | – | –
23 | O=C(/C=C/c1ccc(C(=O)NCc2cccnc2)c(C(F)(F)F)c1)NC(c1cccc(C(F)(F)F)c1)C(F)(F)F (stereo not shown) [Ia-50] | – | 100 | HPLC-MS: logP = 2.23; mass | – | – | – | – | –
24 | COC(=O)C(C)NC(=O)c1ccc(/C=C/C(=O)NC(c2cccc(C(F)(F)F)c2)C(F)(F)F)cc1C(F)(F)F (stereo not shown) [Ia-132] | – | – | HPLC-MS: logP = 3.47; mass | 100 | 80 | – | – | –
25 | O=C(/C=C/c1ccc(C(=O)NC2CCOC2=O)c(C(F)(F)F)c1)NC(c1cccc(C(F)(F)F)c1)C(F)(F)F (stereo not shown) [Ia-136] | – | – | – | 100 | 100 | – | – | –
26 | CCC(=O)NCc1ccc(/C=C/C(=O)NC(c2ccc(F)c(Cl)c2)C(F)(F)F)cc1F (stereo not shown) [Ia-277] | – | – | – | – | 100 | 100 | – | HPLC-MS: logP = 3.06; mass
27 | CC(C)(C#N)NC(=O)c1ccc(/C=C/C(=O)NC(c2cccc(C(F)(F)F)c2)C(F)(F)F)cc1Cl (racemic) [Ia-195] | – | – | HPLC-MS: logP = 3.34; mass | – | 100 | 100 | – | –
28 | O=C(/C=C/c1ccc(C(=O)NCc2ccccn2)c(C(F)(F)F)c1)NC(c1cccc(C(F)(F)F)c1)C(F)(F)F (stereo not shown) [Ia-36] | – | 100 | HPLC-MS: logP = 2.75; mass | 100 | – | – | – | –
29 | O=C(/C=C/c1ccc(C(=O)NCc2ccncc2)c(C(F)(F)F)c1)NC(c1cccc(C(F)(F)F)c1)C(F)(F)F (stereo not shown) [Ia-49] | – | 90 | HPLC-MS: logP = 2; mass | – | – | – | – | –
30 | COC(=O)N(C)NC(=O)c1ccc(/C=C/C(=O)NC(c2cccc(C(F)(F)F)c2)C(F)(F)F)cc1C(F)(F)F (stereo not shown) [Ia-170] | – | – | HPLC-MS: logP = 3.23; mass | – | 100 | 83 | – | –
31 | CCC(=O)NCc1ccc(/C=C/C(=O)NC(c2cccc(C(F)(F)F)c2)C(F)(F)F)cc1F (stereo not shown) [Ia-276] | – | – | – | – | 100 | 100 | – | HPLC-MS: logP = 3.12; mass
32 | O=C(/C=C/c1ccc(C(=O)NCc2ncccn2)c(C(F)(F)F)c1)NC(c1cccc(C(F)(F)F)c1)C(F)(F)F (stereo not shown) [Ia-127] | – | – | HPLC-MS: logP = 3.05; mass | 100 | 90 | 100 | – | –
33 | CC(C)NC(=O)c1ccc(/C=C/C(=O)NC(c2cccc(C(F)(F)F)c2)C(F)(F)F)cc1Cl (stereo not shown) [Ia-150] | – | – | HPLC-MS: logP = 3.5; mass | 100 | 100 | – | – | –
34 | C#CC(C)NC(=O)c1ccc(/C=C/C(=O)NC(c2cccc(C(F)(F)F)c2)C(F)(F)F)cc1C(F)(F)F (stereo not shown) [Ia-138] | – | – | HPLC-MS: logP = 3.58; mass | 100 | 80 | 100 | – | –
